Bounds are passed on as bounds.

What is called melting point is the temperature, or range, at which the solid turns liquid. `Fc1ccc(C=Nc2nc3ccc(Cl)cc3s2)cc1` came in with a melting point of 168 to 169 °C. Turning to `CCCOc1ccc(NC(=O)N2CCN(c3ncnc4cc(OC)c(OC)cc34)CC2)cc1`, the melting point was 218 to 220 °C. To `C=Cc1cnc2c(NC(=O)c3c(Cl)cccc3Cl)cccc2c1CO` belongs 243 to 244 °C; to `COc1ccc2ccc(NC(=O)c3cccc(OC(C)=O)c3)nc2n1`, 172 °C; to `COC(=O)C1CCCc2c(-c3ccc(Cl)cc3)nsc2C1` (stereo unspecified), 108 to 109 °C.

In turn, `CCCCCC(=O)OC1(c2nc(OC)cc(OC)n2)OC(=O)c2c(Cl)ccc(Cl)c21` (stereo unspecified) displayed a melting point of 103 to 105 °C. To `COc1ccc(C(=O)Nc2ccc3ccc(Oc4cccc(C)c4)nc3n2)cc1` belongs 160 °C; to `COc1cc(C(=O)Cc2ccccc2C)cc([N+](=O)[O-])c1O`, 150 to 151 °C. Turning to `COc1cc2c(cc1Nc1ncc(Cl)c(Nc3ccccc3S(=O)(=O)N3CCC(O)C3)n1)CCN(CC(C)O)CC2` (stereo unspecified), the melting point was 197 to 199 °C. On to `CC(C)(NC(=O)CCSC(=O)c1ccccc1)C(=O)O`, for which the melting point fell in the range of 142 to 143 °C. To `COC(=O)c1cscc1Nc1ccc(C(F)(F)F)cc1[N+](=O)[O-]` belongs 175 °C; to `CCc1cc2c(ccc(=O)n2Cc2ccc(NC(=O)c3ccccc3C(=O)O)cc2)c(CC)n1`, 237 to 240 °C; to `COc1nc2cc([N+](=O)[O-])c(C)c(C(=O)N(C)C)c2nc1OC`, 138 to 141 °C. For `CCOC(=O)C1=C(C)NC(CO)=C(C(=O)OCC)C1c1cccs1` (stereo unspecified), the melting point was 125 to 126 °C.

`CCCCCCCCCCCCOC(=O)NS(=O)(=O)Nc1c(OC)cc(OC)cc1OC` displayed a melting point of 133 to 136 °C. With `COc1cc(C2=NC(C)(C)CO2)cc(OC)c1SC`, the melting point lay within 82.5 to 84.5 °C. To `Cc1nc2[nH]c(=O)[nH]c2cc1-c1ccc([N+](=O)[O-])cc1` belongs above 300 °C; to `Cc1ccn(-c2ccc(C(=O)N3Cc4cccnc4Nc4ccccc43)c(F)c2)n1`, 122 to 125 °C.

The compound `CC(C)NN=C(N)Nc1c(Cl)cccc1Cl` displayed a melting point of 227 to 228 °C. `O=c1ccn(CCO)c(Cc2cccc(F)c2)c1O` had a melting point of 235 to 242 °C.

As for `O=C1CCC(c2c[nH]c3ccccc23)CC1`, the melting point lay within 123 to 125 °C.

On to `COc1ccc2nc(SCc3nccc(OC)c3OC)[nH]c2n1`, for which the melting point amounted to 157 °C. To `O=C1c2ccccc2C(=O)N1CCCN1CCC(=C(c2ccccc2)c2ccccc2)CC1` belongs 108 to 110 °C; to `CNC(=O)ON=C1OCCOC1(C)C`, 144 to 146 °C. The compound `O=S1N=C(NCCCOc2cccc(CN3CCCCC3)c2)C(NCc2cccnc2)=N1` (stereo unspecified) came in with a melting point of 140 to 143 °C. To `O=C(O)C(=C1SCCCS1)c1cccc(C(F)(F)F)c1` belongs 165 to 166 °C. Take `CC1(C)Oc2ccc(C#N)cc2[C@@H](NC(=O)Nc2cccc(-c3ncno3)c2)[C@@H]1O`: the melting point was 168 to 170 °C. `CSC1=NC(c2cccc([N+](=O)[O-])c2)C2=C(COC2=O)N1` (stereo unspecified) registered a melting point of 204 to 206 °C. To `CCOP(=O)(OCC)c1nc(NC(C)C)nc(NC(C)C)n1` belongs 91 to 94 °C; to `O=C(O)CCC(=O)Nc1cccc(-c2ccnc3c(C(=O)c4cccs4)cnn23)c1`, 240 to 241 °C. The compound `Nc1c(Cl)c(Br)cc2[nH]c(=O)c(=O)[nH]c12` returned a melting point above 350 °C. Compound `Cn1nc(-c2cnc(N)nc2-c2ccccc2)ccc1=O` displayed a melting point of 254 to 255 °C. To `Cc1cc(C)cc(-c2cnn3c(-c4cccc(-c5nnn(CCN6CCCCC6)n5)c4)ccnc23)c1` belongs 66 °C; to `COc1ccc(F)c2c(O)c(C=O)ccc12`, 156 to 158 °C. In turn, `O=C(O)COc1c(-c2cccc(Cl)c2)cc(C(=O)NCCCCCCCCc2ccccc2)cc1-c1cccc(Cl)c1` returned a melting point of 165 to 167 °C. In the case of `CC(C)(C)c1cc(CC2CO2)cc(C(C)(C)C)c1O` (stereo unspecified), the melting point was 86 to 87 °C. To `COc1ccc(-c2nc(C(=O)O)c[nH]2)cc1OC1CCCC1` belongs 206 to 208 °C; to `CCOC(=O)c1cc2cc(NC(=O)C[C@H]3O[C@H](c4cccc(OC)c4OC)c4cc(Cl)ccc4N(CC(C)(C)COC(C)=O)C3=O)ccc2[nH]1`, 200 to 201 °C; to `NC(=O)c1nc[nH]c1F`, 253 to 254 °C. To `COc1ccc2c(c1)[C@@]1(C(=O)O)CCCC[C@H]1CC2` (relative stereo) belongs 171 to 173 °C; to `Cc1c(O[Si](C(C)C)(C(C)C)C(C)C)cc2occ(N3CCC(O)(c4ccc(F)cc4)CC3)c(=O)c2c1Br`, 193 to 195 °C.

In turn, `CCSC1=C(c2ccc(O)cc2)C(=O)c2cc(O)cc(O)c21` registered a melting point of 75 to 77 °C. To `COc1ccc(CC(O)CO)c(OCc2ccccc2)c1` (stereo unspecified) belongs 82 to 86 °C; to `Cc1cc(C(F)(F)F)ccc1NC(=O)C(C)(C)C`, 111 to 114 °C; to `COc1cc2ncnc(N3CCN(C(=S)Nc4ccc(Cc5ccncc5)cc4)CC3)c2cc1OC`, 198 to 200 °C. To `Cc1nc2cc(N)ccc2c(=O)n1C1CCC(=O)NC1=O` (stereo unspecified) belongs 305 to 307 °C; to `CCCCCCc1cc2c(s1)-n1c(C)nnc1C(C)N=C2c1ccccc1C` (stereo unspecified), 83 to 85 °C; to `CN(CCCNc1ncc(CCc2ccccc2)c(=O)[nH]1)c1ccccn1`, 134 to 136 °C.

Compound `COc1c(OCc2ccc(-c3ccccc3S(=O)(=O)Nc3noc(C)c3C)c(COCCF)c2)cc(C)nc1C` gave a melting point of 81 to 86 °C. Turning to `CC(C)c1cc(O)c2c(c1)OC(C)(C)C1=C2CN(CC(=O)NC(N)=O)CC1`, the melting point was in the range of 164 to 166 °C. The compound `CCOC(=O)Cc1ccc(NC(=O)C(CO)NS(=O)(=O)c2ccc(F)cc2)cc1` (racemic) came in with a melting point of 148 to 150 °C. To `CSc1ccc(/C=C(\NC(=O)c2ccc(OCC(C)C)cc2)C(=O)NCCO)cc1` belongs 161 to 163 °C. To `CC(N(CCCl)C(N)=O)P(=O)(O)O` (stereo unspecified) belongs 180 °C; to `CC#CCCn1ncc2c(OCC)c(C(=O)OCC)cnc21`, 93 to 95 °C; to `CCOC(=O)C(C#N)=Cc1ccc(NC(C)=O)cc1`, 187 °C. In turn, `Cc1c(C=O)c2cc(F)ccc2n1-c1ccc(OCc2ccccc2)cc1` gave a melting point of 219 to 220 °C. For the compound `COc1cc2c(cc1OC)CN(CCCc1ccc(NC(=O)c3cnc4ccccc4c3)cc1)CC2`, the melting point fell in the range of 184 to 185 °C. As for `O=C(O)c1cn(C2CC2)c2c(C(F)(F)F)c(F)c(F)cc2c1=O`, the melting point was 159 to 162 °C. `O=C(O)c1cn(C2CC2)c2c(F)c(N3CC4CC3CN4)c(F)cc2c1=O` (stereo unspecified) gave a melting point of 288 to 290 °C. In turn, `O=C(O)CCCNc1cc(Oc2ccc(C(F)(F)F)cc2Cl)ccc1[N+](=O)[O-]` had a melting point of 126 to 127 °C. For the compound `CC(=O)Nc1ccc(OCCN2CCc3ccc([N+](=O)[O-])cc3CC2)cc1C`, the melting point is 132 to 134 °C. To `CC(C)(C)OC(=O)N[C@H](Cc1ccc(C(F)(F)F)cc1)[C@@H](O)c1ccc(Cl)nc1` (racemic) belongs 157 to 158 °C; to `Nc1nc(C2CCN(C(=O)Cc3ccc(O)c(O)c3)CC2)c2ccccc2n1`, 250 to 253 °C; to `CCCCc1nc(Sc2ccccc2)c(CO)n1Cc1ccc(-c2ccccc2C(=O)O)cc1`, 215 °C. With `O=C1C=C(O)C(Cc2ccc(Br)cc2)S1` (stereo unspecified), the melting point fell in the range of 156 to 157 °C. To `CC1(C)Cc2ccc(Cl)cc2C=[N+]1[O-]` belongs 88 to 89 °C. `CCOC(=O)C1=C(C)NC(C)=C(C(=O)OCC)C1c1cc([N+](=O)[O-])ccc1OCCCCNCC(O)COc1ccccc1` (stereo unspecified) came in with a melting point of 141 to 143 °C.

In turn, `COC(=O)c1c(O)ccc(CNC(=O)CCCCCNC(=O)OC(C)(C)C)c1O` had a melting point of 73 to 76 °C. As to `COc1ccccc1NC(=O)N1CCc2cc(S(=O)(=O)N3CC(c4ccccc4)NC3=O)ccc21` (stereo unspecified), the melting point was 202 to 204 °C.

With `CCCCCCCCCCCCCCCCCCOc1cc(OCCOc2ccc3ccccc3c2)cc(C(=O)O)c1`, the melting point lay within 93 to 94 °C.

The compound `CCOC(=O)c1c(NC(=O)C(F)(F)F)c2cccnc2n(CC)c1=O` yielded a melting point of 195 to 197 °C. Regarding `CCOC(=O)c1c(S(=O)C(C)C)c2cc(OCc3ccccc3)ccc2n1C` (stereo unspecified), the melting point lay in the range of 142 to 145 °C. To `CC(=O)NC(=O)C(SCc1ccccc1)C(c1ccccc1)(c1ccccc1)c1ccccc1` (stereo unspecified) belongs 184 to 186 °C. As for `COc1ccc(CC(=O)Nc2cc(Cl)c(Cl)cc2[N+](=O)[O-])cc1`, the melting point is 124 to 126 °C. To `O=C(NC(Cc1ccccc1)C(=O)O)c1cc2cc(F)ccc2[nH]1` (stereo unspecified) belongs 125 to 127 °C; to `CCCC(CCC)N1Cc2c(C(=O)OC)cc(NS(C)(=O)=O)cc2C1=O`, 173 °C; to `CC(=O)OC1CSC(Oc2ccc(-c3ccc(Cl)nc3)nc2)C(OC(C)=O)C1OC(C)=O` (stereo unspecified), 204 °C.

In turn, `Nc1cccc(C2(O)CCOCC2)c1` yielded a melting point of 154 to 155 °C. To `CC(NC(=O)Oc1cccc2c1C1(C)CCN(C)C1N2C)c1ccccc1` (stereo unspecified) belongs 151 to 155 °C; to `CCOC(=O)c1cn(CC)c2ncnn2c1=O`, 129 to 131 °C; to `COc1ccc2[nH]cc(C3=CCC4(CC3)OCCO4)c2c1`, 161 to 162 °C. To `COC(=O)c1cc(NCc2c(F)c(F)c(C(F)(F)F)c(F)c2F)ccc1O` belongs 127 °C. For `Cc1cccc2c1nc(-c1c(F)cccc1F)n2Cc1cccnc1`, the melting point fell in the range of 131 to 132 °C. To `CC(=O)N(O)C(C)c1ccc2c(c1)Cc1ccccc1-2` (stereo unspecified) belongs 168 to 171 °C.

For the compound `CCC(O)c1ccc(Cl)c2nc3n(c12)CCCN3c1c(Br)cc(OC)cc1Br` (stereo unspecified), the melting point lay within 138 to 140 °C.

As for `CN(Cc1cc2c(-c3ccccc3)c(CC(=O)Nc3ccc(Cl)cc3C(F)(F)F)c(=O)oc2cc1Cl)C(=O)c1ccccc1`, the melting point is 215 to 216 °C.

Values taken from a melting point compilation (Tetko et al.; mined from patent text by program, amines drawn as free bases though some values may be those of a salt).
